In US4061540A, “Cholesterol oxidaze and process for preparing same” (Kikkoman Shoyu Co., Ltd., priority 1975, dated 1977):

Legend:
[1] = Relative activities of various enzymes exhibited to pregnenolone and cholesterol; assay type: biochemical; conditions: ratio of activity to pregnenolone over cholesterol; source of values for known enzymes not stated
Excerpt: This enzyme oxidizes the hydroxyl group of steroids at […], and exerts no action upon other position of hydroxyl groups, such as 3α, 17β, etc., nor upon ester groups.

[2] = Optimum pH and optimum temperature for the action of the enzyme; assay type: biochemical
Protocol: The optimum pH is in the vicinity of 7.0 when the substrate is cholesterol.
When the reaction time is 15 minutes, the optimum temperature is 40° C.
(§1) Enzymatic activity was measured by ultraviolet absorption method [Clin. Chem. 20, 470 (1974)]. A substrate solution was prepared by dissolving 5 ml of a 300 mg/dl solution of cholesterol in isopropanol into 300 ml of phosphate buffer (pH 7.0) containing 0.05% of Triton X-100. 20 microliter of enzyme solution was added to 3.0 ml of the substrate solution, and the resulting mixture was reacted at 37° C for 15 minutes. Increase in the absorption at 240 nm, assignable to cholest-4-en-3-one resulting from the reaction, was measured.

[3] = assay type: physicochemical; conditions: treated at 30° C for 1 hour
Protocol: It keeps stable in the pH range of 5-9 when treated at 30° C for 1 hour.

[4] = Isoelectric point by isoelectric focusing; assay type: physicochemical; conditions: pH, carrier ampholyte pH 3-10, 900 V, 50 hours, 4° C
Protocol: The enzyme has an isoelectric point of pH 8.7, as measured by the method of isoelectric focusing. Thus, 10 mg of a purified enzyme was introduced into a 110 ml column packed with a carried ampholyte kept at pH 3-10 [LKB-Producter, commercial name of a product manufactured by AB Co.; cf. Biochem. Biophys. Acta, 133, 435 (1967)]. An electric current was passed at a voltage of 900 V for a period of 50 hours, while the column was cooled to 4° C.

cholesterol oxidase [5] = experiment: Action and substrate specificity: relative activity by hydrogen peroxide formation (peroxidase/4-aminoantipyrine/phenol, absorbance at 500 nm); assay type: biochemical, Corynebacterium cholesterolicum
Protocol: All the above-mentioned values of relative activity (%) refer to the relative amounts of hydrogen peroxide formed from the substances oxidized by cholesterol oxidase, where the activity to cholesterol is taken as 100. The activity was measured by the following procedure.
A substrate solution was prepared by mixing 50 microliter of a 0.38 micromolar solution of cholesterol in isopropanol with 3 milliliter of 0.1 M phosphate buffer (pH 7.0; it contains 0.82 millimoles of 4-aminoantipyrine, 14 millimoles of phenol, 0.17 millimoles of Carbowax 6000 and 0.3% Triton X-100). The resulting substrate solution was incubated for 5 minutes in a cell of light path, 10 mm, kept at 37° C.
50 microliter of an enzyme solution containing 2.5 U of peroxidase and 0.1 U of cholesterol oxidase was added. The increase in absorbance at 500 nm was measured at 37° C. The initial velocity was obtained from the increase in absorbance, from which the relative activity was computed. [Literature: Charles C. Allain, Lucy S. Poon, Cicely G. Chan, W. Richmond and Paul C. Fu, Clin. Chem. 20, 470 (1974)].

cholesterol oxidase [6] = experiment: Km value by the ultraviolet absorption method; assay type: biochemical, Corynebacterium cholesterolicum
Protocol: as §1

cholesterol oxidase [7] = experiment: Inhibition of the enzyme; assay type: biochemical, Corynebacterium cholesterolicum
[8] = relative amounts of hydrogen peroxide formed, activity to cholesterol taken as 100, initial velocity, 37° C, pH 7.0

Row | Molecule | Relative activity (%) (cholesterol oxidase [5]; [8]) | also measured
1 | cholesterol oxidase | – | relative activities exhibited to pregnenolone and cholesterol [1]: 4.16; optimum temperature for the action ([2]; reaction time 15 minutes): 40 °C; Optimum pH ([2]; substrate is cholesterol): ~7.0; pH range in which it keeps stable [3]: 5-9; isoelectric point [4]: 8.7
2 | CC(=O)[C@H]1CC[C@H]2[C@@H]3CC=C4C[C@@H](O)CC[C@]4(C)[C@H]3CC[C@]12C [Pregnenolone] | 416% | Km (cholesterol oxidase [6]): 31 µM
3 | O=C(O)c1cc[c]([Hg][Cl])cc1 [p-chloromercuribenzoate] | – | Inhibition of the enzyme (in words) (cholesterol oxidase [7]): inhibited
4 | C[C@@H]1CC[C@@]2(OC1)O[C@H]1C[C@H]3[C@@H]4CC=C5C[C@@H](O)CC[C@]5(C)[C@H]4CC[C@]3(C)[C@H]1[C@@H]2C [Diosgenin] | 0% | –
5 | C[C@]12CC[C@H](O)CC1=CC[C@@H]1[C@@H]2CC[C@]2(C)C(=O)CC[C@@H]12 [Dehydro-epiandrosterone] | 57% | –
6 | CC(C)CCC[C@@H](C)[C@H]1CC[C@H]2[C@@H]3CC=C4C[C@@H](O)CC[C@]4(C)[C@H]3CC[C@]12C [Cholesterol] | 100% | Km (cholesterol oxidase [6]): 54 µM
7 | C[C@]12CC[C@@H](O)C[C@@H]1CC[C@@H]1[C@@H]2CC[C@]2(C)C(=O)CC[C@@H]12 [Androsterone] | – | Relative activity (%) (cholesterol oxidase [5]; pH 7): 0%
8 | CC(=O)O[C@H]1CC[C@@]2(C)C(=CC[C@H]3[C@@H]4CC[C@H]([C@H](C)CCCC(C)C)[C@@]4(C)CC[C@@H]32)C1 [Cholesterol acetate] | 0% | –
9 | CC(C)CCC[C@@H](C)[C@H]1CC[C@H]2[C@@H]3CC[C@H]4C[C@@H](O)CC[C@]4(C)[C@H]3CC[C@]12C [β-Cholestanol] | 43% | –
10 | O=C(O)CN(CCN(CC(=O)O)CC(=O)O)CC(=O)O [EDTA] | – | Inhibition of the enzyme (in words) (cholesterol oxidase [7]): not inhibited
11 | CC[C@H](/C=C/[C@@H](C)[C@H]1CC[C@H]2[C@@H]3CC=C4C[C@@H](O)CC[C@]4(C)[C@H]3CC[C@]12C)C(C)C [Stigmasterol] | 17% | –
12 | C[C@]12CC[C@@H]3c4ccc(O)cc4CC[C@H]3[C@@H]1CC[C@@H]2O [β-Estradiol] | 0% | –
13 | [Ag+] [Ag^+] | – | Inhibition of the enzyme (in words) (cholesterol oxidase [7]): inhibited
14 | [Hg+2] [Hg^2+] | – | Inhibition of the enzyme (in words) (cholesterol oxidase [7]): inhibited
15 | Oc1cccc2cccnc12 [8-hydroxyquinoline] | – | Inhibition of the enzyme (in words) (cholesterol oxidase [7]): not inhibited
16 | C[C@]12CC[C@H](O)C[C@H]1CC[C@@H]1[C@@H]2CC[C@]2(C)[C@@H](C3=CC(=O)OC3)CC[C@]12O [Digitoxigenin] | 0% | –
17 | c1cnc2c(c1)ccc1cccnc12 [o-phenanthroline] | – | Inhibition of the enzyme (in words) (cholesterol oxidase [7]): not inhibited
18 | C[C@H](CCC(=O)O)[C@H]1CC[C@H]2[C@@H]3[C@H](O)C[C@@H]4C[C@H](O)CC[C@]4(C)[C@H]3C[C@H](O)[C@]12C [Cholic acid] | 0% | –
19 | CC[C@H](CC[C@@H](C)[C@H]1CC[C@H]2[C@@H]3CC=C4C[C@@H](O)CC[C@]4(C)[C@H]3CC[C@]12C)C(C)C [β-Sitosterol] | 54% | –
20 | CC(C)[C@@H](C)/C=C/[C@@H](C)[C@H]1CC[C@H]2C3=CC=C4C[C@@H](O)CC[C@]4(C)[C@H]3CC[C@]12C [Ergosterol] | 13% | –
21 | C=C1CC[C@H](O)C/C1=C/C=C1\CCC[C@]2(C)[C@@H]([C@H](C)CCCC(C)C)CC[C@@H]12 [Vitamin D3] | 0% | –
22 | C[C@]12CC[C@H]3[C@@H](CCC4=CC(=O)CC[C@@]43C)[C@@H]1CC[C@@H]2O [Testosterone] | 0% | –
